Assays:
Assay type in all cases: physicochemical
[1] = Pheromone migrated to the stick tips (GC/FID); conditions: on stick tips, despecified pheromone
Experimental: In the course of this study, we also measured the amount of pheromone migrating on the sticks, to check that the pheromone had migrated to the top of the sticks, helping it to diffuse into the air. To do this, the test is the same as for the diffuser blocks: 2.5 g of stick tips are cut off and placed in a 50 mL flask, which is then placed in an ultrasonic bath for one hour. The resulting solution is filtered (to avoid injecting particles into the instrument) and placed in a chromatographic vial for analysis.

[2] = F3 direct diffusion and mass loss, 40 mL and eight sticks with a refill; conditions: F3, eight sticks
Experimental: To that purpose, three devices containing 40 mL of F3 feline facial pheromone product and eight rattan sticks were prepared and left on diffusion. Every Monday, Wednesday and Friday, the diffusion of the pheromone in air was checked by analysis by gas chromatography coupled with mass spectrometer (GC/MS) and SPME (solid phase microextraction) until there was no liquid left. Then, the solution was refilled and a second study of the diffusion of the pheromone was performed.
Experimentally, the studied device was taken and placed into a closed space under identical conditions than in section E/, and for analyzing the same data.
Each measuring day, the devices were weighed and the level of the solution in the flask was controlled.

[3] = DAP PCDS direct diffusion (SPME-GC/MS); conditions: DAP/PCDS diffuser, 40 mL, 6 capillaries
Experimental: Three diffusers, each containing 40 mL of solution and 6 capillaries, were prepared and diffused. The first points were measured at T=1d, T=2, and T=3d, then every Monday, Wednesday and Friday of each study week until the diffusers no longer contained any solution. To measure the pheromone released into the air at each study time, the diffuser is first weighed (with the sticks) to measure mass loss, then placed in an enclosed area (in this case, an upside-down aquarium) containing a SPME fiber, as shown in FIG. 24.
The fiber is left to diffuse above the diffuser for 2 hours (a time determined in a previous method development as the optimum time for molecules to adsorb to the phase), then analyzed using the gas chromatography/mass spectrometry (GC/MS) technique.
Three diffusers were studied for greater accuracy. The chromatograms obtained are reprocessed using GC/MS Solution software.
For each chromatographic peak, the area is recorded using GC/MS Solution software, then entered into an Excel spreadsheet. Diffusion curves giving the area of the chromatographic peak corresponding to each active ingredient as a function of time are then plotted.
Analyses were carried out by gas chromatography/mass spectrometry (GC/MS). The instrument was a Shimadzu GCMS QP2010SE® equipped with an AOC 6000® autosampler. Separation was carried out on a ZB-FFAP® column (30 m×0.25 mm×0.25 μm, stationary phase: nitroterephthalic acid-modified polyethylene glycol) supplied by Phenomenex. The furnace temperature was initially set at 80° C. for 1 minute, then increased at 10° C./min to 240° C. and maintained at this temperature for 2 minutes. The carrier gas was helium at a flow rate of 1 mL/min. Analysis time is 19 minutes.
The injector is a split/splitless injector used in split mode (temperature: 250° C., split: 50:1). The SPME fiber was injected directly into the injector and left to desorb for 15 minutes.
The separated molecules were detected using a mass spectrometer equipped with an electron impact source (temperature: 200° C.). The analyzer is a simple quadrupole. The interface temperature is 250° C. Data were acquired in FASST mode (Fast automated SCAN/SIM type), i.e. part of the analysis was performed by scanning all ions (SCAN) and part by selecting specific ions (SIM). Target molecules were thus analyzed using ion selection.

[4] = F3 sticks device, direct diffusion, 40 mL and four sticks (SPME GC/MS); conditions: four sticks
Experimental: Three devices containing 40 mL of F3 feline facial pheromone product and four rattan sticks were prepared and left on diffusion. Every Monday, Wednesday and Friday, the diffusion of the pheromone in air was checked by analysis by gas chromatography coupled with mass spectrometer (GC/MS) and SPME (solid phase microextraction) until there is no liquid left (about 22 days).
To that purpose, the studied device was taken and placed into a closed space (in our case an aquarium turned over) containing the SPME fiber as shown on FIG. 24.
The SPME fiber was left for two hours to give the time for the molecules to adsorb on the fiber, then the fiber was injected into the GC/MS instrument for analysis.
Analysis were carried out using gas chromatography with mass spectrometer. The instrument was a GCMS QP2010SE® from Shimadzu with an AOC6000® Autosampler. The separation was performed on a ZB-5 MS® column (30 m×0.25 mm×0.25 μm, stationary phase: 95% Dimethylpolysiloxane, 5% Phenyl-Arylene) from Phenomenex. The GC oven temperature was initially held at 100° C. for 1 minute then increased at a pace of 10° C./min to 120° C. and left at this temperature for 3 minutes. Finally, the oven temperature was increased at a pace of 10° C./min to 240° C. and left at this temperature for 10 minutes. The carrier gas was helium at 1 mL/min. Analysis were performed in split mode using a split/splitless injector (Temperature: 250° C., split: 1:20). The SPME fiber was directly injected into the injector and left for 30 minutes. Separated molecules were detected using a mass spectrometer which was operated in electron impact ionization (EI) in both full scan (FS) and single ion monitoring (SIM) modes, so called FASST (Fast Automated SCAN/SIM type) mode. The interface temperature was set at 300° C. and electron impact source temperature at 250° C. The analyser was a quadrupole.
For the measurement of the relative quantity of active ingredient spreading in air, the area of the chromatographic peak corresponding to the compound was measured using Shimadzu GCMS-Solution software.

| % of the active ingredient in the pheromone ([1]; day 7) | % of the active ingredient in the pheromone ([1]; day 14) | % of the active ingredient in the pheromone ([1]; day 21) | intensity of direct diffusion [2] | direct diffusion over time [3] | SMILES | direct diffusion over time [4] |
| --- | --- | --- | --- | --- | --- | --- |
| 31.3% | 31.5% | 32.6% | less intensity | slight increase over time | CCCCCCCC/C=C\CCCCCCCC(=O)OC [methyl oleate, methyl (Z)-octadec-9-enoate] | slight increase of the diffusion over time |
| 29.8% | 30.2% | 32.5% | less intensity | slight increase over time | CCCCCCCCCCCCCCCC(=O)OC [methyl palmitate, methyl hexadecanoate] | slight increase of the diffusion over time |

Source: patent US20250248393A1, “METHOD OF RELEASING A SEMIOCHEMICAL IN THE ENVIRONEMENT BY PASSIVE DIFFUSION, SYSTEM AND MEANS, ESPECIALLY STICKS, TO THIS END, AND USES THEREOF” (SIGNS, priority 2024, published 2025)
